Measured values: patent publication US8546608B2, “Proteasome inhibitors and methods of using the same” (Cephalon, Inc., priority 2003, dated 2013)
pEC50, pIC50: −log10 of the molar value. Structures can show the parent of a compound that is named as a salt. Where two headings read alike, the source gives them in different places.

Columns and labels:
[1] = molecular target: T1, 20S Human Erythrocyte Proteasome (HEP) (Homo sapiens, UniProt P20618+P28074); assay: Chymotrypsin-like activity of 20S Human Erythrocyte Proteasome (HEP), IC50 determination; type: biochemical; conditions: assay of Example C, inhibition of HEP
T1 construct: 20S Human Erythrocyte Proteasome (HEP), purchased from Immatics Biotechnologies Inc; purchased Immatics Biotechnologies Inc., Tübingen, Germany; host or cells: human erythrocytes (natural source)
In short: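 20S proteasome at 0.2 μg/mL (about 0.6 nM catalytic sites) in 20 mM Tris with 0.04% SDS, preincubated 15 min at 37° C with inhibitor before Suc-LLVY-AMC (100 μM final). AMC fluorescence read in the linear range; triplicates, IC50 from concentration series.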

[2] = molecular target: T2, proteasome in Molt-4 cells (human leukemia) (Homo sapiens, UniProt P20618+P28074); type: cell-based
T2 sequence (P28074 60-263): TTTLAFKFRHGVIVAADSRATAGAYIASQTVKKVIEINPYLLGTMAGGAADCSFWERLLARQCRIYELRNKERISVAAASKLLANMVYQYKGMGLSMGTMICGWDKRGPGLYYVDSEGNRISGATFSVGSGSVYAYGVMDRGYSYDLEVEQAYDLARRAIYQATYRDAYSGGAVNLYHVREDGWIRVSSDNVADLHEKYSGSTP
T2 sequence (P20618 29-241): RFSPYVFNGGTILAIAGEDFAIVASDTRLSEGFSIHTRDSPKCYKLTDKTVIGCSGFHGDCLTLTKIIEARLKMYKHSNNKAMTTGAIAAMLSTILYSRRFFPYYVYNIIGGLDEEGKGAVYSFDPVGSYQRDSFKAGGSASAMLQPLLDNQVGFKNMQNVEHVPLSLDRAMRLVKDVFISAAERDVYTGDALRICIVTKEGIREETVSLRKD
In short: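 Intact Molt-4 cells (6×10^6 cells/mL) in HEPES-buffered saline were preincubated with inhibitor 15 min at 37 °C, then given cell-permeable MeOSuc-FLF-AFC at 25 μM final.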

[3] = assay of Example E, inhibition of MOLT4; read-out: MOLT4 (EC50)

SMILES	pIC50 [1]	pEC50 [2, 3]	pEC50 ([2]; read-out: MOLT4 (EC50); assay of Example E, inhibition of MOLT4)
CC(C)C[C@H](NC(=O)[C@H](CCCNC(=N)N[N+](=O)[O-])NC(=O)Cc1ccsc1)B(O)O [E.2.62, Boronic acid, [(1R)-1-[[(2S)-5-[[imino(nitroamino)methyl]amino]-2-[(2-thiophen-3-yl-acetyl)amino]-1-oxopentyl]amino]-3-methylbutyl]]	> 8.00	< 5.00	
CC(C)C[C@H](NC(=O)[C@H](CCCNC(=N)N[N+](=O)[O-])NC(=O)CCSc1ccc2ccccc2c1)B(O)O [E.2.48, Boronic acid, [(1R)-1-[[(2S)-5-[[imino(nitroamino)methyl]amino]-2-[[3-(naphthalen-2-ylsulfanyl)-propanoyl]amino]-1-oxopentyl]amino]-3-methylbutyl]]	> 8.00	5.70 to 6.70	
CC(C)C[C@H](NC(=O)[C@H](CCCNC(=N)N[N+](=O)[O-])NC(=O)CC1CCCCCC1)B1O[C@@H]2C[C@@H]3C[C@@H](C3(C)C)[C@]2(C)O1 [D.3.43]	> 8.00	> 6.70	
CC(C)C[C@H](NC(=O)[C@H](CCCNC(=N)N[N+](=O)[O-])NC(=O)CSc1ccc2ccccc2c1)B1O[C@@H]2C[C@@H]3C[C@@H](C3(C)C)[C@]2(C)O1 [D.3.37]	> 8.00	> 6.70	
CC(C)=CCC[C@@H](C)CC(=O)N[C@@H](CCCNC(=N)N[N+](=O)[O-])C(=O)N[C@@H](CC(C)C)B(O)O [D.7.25, Boronic acid, [(1R)-1-[[(2S)-5-[[imino(nitroamino)methyl]amino]-2-[((3R)-3,7-dimethyloct-6-enoyl)amino]-1-oxopentyl]amino]-3-methylbutyl]]	> 8.00	5.00 to 5.70	
CC(C)C[C@H](NC(=O)[C@H](CCCNC(=N)N[N+](=O)[O-])NC(=O)Cc1ccccc1Cl)B(O)O [E.1.13, Boronic acid, [(1R)-1-[[(2S)-5-[[imino(nitroamino)methyl]amino]-2-[2-(2-chlorophenyl)acetyl]amino]-3-methylbutyl] HCl salt]	> 8.00		5.00 to 5.70
CC(C)C[C@H](NC(=O)[C@H](CCCNC(=N)N[N+](=O)[O-])NC(=O)CCN1C(=O)c2ccccc2C1=O)B(O)O [E.1.5]	> 8.00	< 5.00	
COCCOCC(=O)NCC(=O)N[C@@H](CCCNC(=N)N[N+](=O)[O-])C(=O)N[C@@H](CC(C)C)B1O[C@@H]2C[C@@H]3C[C@@H](C3(C)C)[C@]2(C)O1 [D.2.6]	> 7.00	5.00 to 5.70	
COc1ccc(C(=O)N[C@@H](CCCNC(=N)N[N+](=O)[O-])C(=O)N[C@@H](CC(C)C)B(O)O)cc1F [D.7.35, Boronic acid, [(1R)-1-[[(2S)-5-[[imino(nitroamino)methyl]amino]-2-[(3-fluoro-4-methoxybenzoyl)amino]-1-oxopentyl]amino]-3-methylbutyl]]	> 8.00	< 5.00	
CSCCC(=O)N[C@@H](CCCNC(=N)N[N+](=O)[O-])C(=O)N[C@@H](CC(C)C)B1O[C@@H]2C[C@@H]3C[C@@H](C3(C)C)[C@]2(C)O1 [D.3.138, 3-Methylsulfanylpropanamide,N-[(1S)-1-[[[(1R)-1-[(3aS,4S,6S,7aR)-hexahydro-3a,5,5-trimethyl-4,6-methano-1,3,2-benzodioxaborol-2-yl]-3-methylbutyl]amino]carbonyl]-4-[[imino(nitroamino)methyl]amino]butyl]]	> 7.00	5.70 to 6.70	
CC(C)C[C@H](NC(=O)[C@H](CCCNC(=N)N[N+](=O)[O-])NC(=O)/C=C/c1ccccc1Br)B1O[C@@H]2C[C@@H]3C[C@@H](C3(C)C)[C@]2(C)O1 [D.3.34]	> 8.00	> 6.70	
CC(C)C[C@H](NC(=O)[C@H](CCCNC(=N)N[N+](=O)[O-])NC(=O)CCC(=O)c1ccc(S(C)(=O)=O)cc1)B(O)O [E.2.47, Boronic acid, [(1R)-1-[[(2S)-5-[[imino(nitroamino)methyl]amino]-2-[[4-(4-methanesulfonylphenyl)-4-oxobutanoyl]amino]-1-oxopentyl]amino]-3-methylbutyl]]	> 8.00	< 5.00	
CC(C)C[C@H](NC(=O)[C@H](CCCNC(=N)N[N+](=O)[O-])NC(=O)CCCCc1ccc(F)cc1)B1O[C@@H]2C[C@@H]3C[C@@H](C3(C)C)[C@]2(C)O1 [D.3.124, 5-(4-Fluorophenyl)-pentanamide,N-[(1S)-1-[[[(1R)-1-[(3aS,4S,6S,7aR)-hexahydro-3a,5,5-trimethyl-4,6-methano-1,3,2-benzodioxaborol-2-yl]-3-methylbutyl]amino]carbonyl]-4-[[imino(nitroamino)methyl]amino]butyl]]	> 8.00	> 6.70	
CC(C)C[C@H](NC(=O)[C@@H](NS(=O)(=O)c1ccc2ccccc2c1)[C@@H](C)O)B(O)O [E.3.4, Boronic acid, [(1R)-1-[[(2S,3R)-3-hydroxy-2-[(naphthalene-2-sulfonyl)amino]-1-oxobutyl]amino]-3-methylbutyl]]	> 7.00	> 6.70	
CC(C)C[C@H](NC(=O)[C@H](CCCNC(=N)N[N+](=O)[O-])NC(=O)Cc1ccccc1)B1O[C@@H]2C[C@@H]3C[C@@H](C3(C)C)[C@]2(C)O1 [D.3.3]	> 8.00	5.70 to 6.70	
Cc1ccc(OCC(=O)N[C@H](C(=O)N[C@@H](CC(C)C)B(O)O)[C@@H](C)O)cc1 [E.3.2]	> 8.00	> 6.70	
CCCCC(C)(C)C(=O)N[C@@H](CCCNC(=N)N[N+](=O)[O-])C(=O)N[C@@H](CC(C)C)B(O)O [D.7.21, Boronic acid, [(1R)-1-[[(2S)-5-[[imino(nitroamino)methyl]amino]-2-[(2,2-dimethylhexanoyl)amino]-1-oxopentyl]amino]-3-methylbutyl]]	> 8.00	5.00 to 5.70	
CCCCCCCCCCCCC(=O)N[C@@H](CCCNC(=N)N[N+](=O)[O-])C(=O)N[C@@H](CC(C)C)B(O)O [E.2.45, Boronic acid, [(1R)-1-[[(2S)-5-[[imino(nitroamino)methyl]amino]-2-[(tridecanoyl)amino]-1-oxopentyl]amino]-3-methylbutyl]]	> 8.00	> 6.70	
CC(C)C[C@H](NC(=O)[C@H](CCCNC(=N)N[N+](=O)[O-])NC(=O)CSc1ncccn1)B1O[C@@H]2C[C@@H]3C[C@@H](C3(C)C)[C@]2(C)O1 [D.3.137]	> 7.00	5.00 to 5.70	
CC(C)C[C@H](NC(=O)[C@H](CCCNC(=N)N[N+](=O)[O-])NC(=O)CCCCCCCc1ccccc1)B1O[C@@H]2C[C@@H]3C[C@@H](C3(C)C)[C@]2(C)O1 [D.3.117, 8-Phenyl-octanamide,N-[(1S)-1-[[[(1R)-1-[(3aS,4S,6S,7aR)-hexahydro-3a,5,5-trimethyl-4,6-methano-1,3,2-benzodioxaborol-2-yl]-3-methylbutyl]amino]carbonyl]-4-[[imino(nitroamino)methyl]amino]butyl]]	> 8.00	> 6.70	
CC(C)C[C@H](NC(=O)[C@@H](NS(=O)(=O)c1ccc2ccccc2c1)[C@@H](C)O)B1O[C@@H]2C[C@@H]3C[C@@H](C3(C)C)[C@]2(C)O1 [D.4.9, Naphthalene-2-sulfonamide, N-[(1S,2R)-1-[[[(1R)-1-[(3aS,4S,6S,7aR)-hexahydro-3a,5,5-trimethyl-4,6-methano-1,3,2-benzodioxaborol-2-yl]-3-methylbutyl]amino]carbonyl]-2-hydroxypropyl]]	> 7.00	> 6.70	
CC(C)C[C@H](NC(=O)[C@H](CCCNC(=N)N[N+](=O)[O-])NC(=O)C1CCC(C(C)(C)C)CC1)B(O)O (stereo partly drawn) [E.2.5, Boronic acid, [(1R)-1-[[(2S)-5-[[imino(nitroamino)methyl]amino]-2-[[4-(1,1-Dimethylethyl)cyclohexanecarbonyl]amino]-1-oxopentyl]amino]-3-methylbutyl]]	> 8.00	5.00 to 5.70	
COc1ccc(F)cc1C(=O)N[C@@H](CCCNC(=N)N[N+](=O)[O-])C(=O)N[C@@H](CC(C)C)B(O)O [D.7.28, Boronic acid, [(1R)-1-[[(2S)-5-[[imino(nitroamino)methyl]amino]-2-[(5-fluoro-2-methoxybenzoyl)amino]-1-oxopentyl]amino]-3-methylbutyl]]	> 8.00	< 5.00	
CCCCc1ccc(C(=O)N[C@@H](CNS(=O)(=O)c2ccc(F)cc2)C(=O)N[C@@H](CC(C)C)B2O[C@@H]3C[C@@H]4C[C@@H](C4(C)C)[C@]3(C)O2)cc1 [D.19, 4-Butylbenzamide, N-[(1S)-1-[[[(1R)-1-[(3aS,4S,6S,7aR)-hexahydro-3a,5,5-trimethyl-4,6-methano-1,3,2-benzodioxaborol-2-yl]-3-methylbutyl]amino]carbonyl]-2-[4-fluoro-benzenesulfonammide]ethyl]-]	> 8.00	> 6.70	
